Here are results for one molecule from article PMC9780888, “4-Isobutylmethcathinone—A Novel Synthetic Cathinone with High In Vitro Cytotoxicity and Strong Receptor Binding Preference of Enantiomers” (Pharmaceuticals, 2022).

The structures appear in SMILES notation.

Assay [1] relates to CaCo-2 cells. The assay can be described thus: Fluorescence microscopy of cell morphology, CaCo-2. Particulars: CaCo-2, 24-h treatment, 100, 300 and 500 µM tested; cells smaller, roundish, in clusters. Type of assay: cell-based, human. The source says:
(§1) In addition to the evaluation of IBMcat cytotoxicity in various cell lines, its impact on cell morphology was also examined in CaCo-2 and MRC-5 cells after 24-h treatment. F-actin and cell nuclei were visualized in these cells treated with 100, 300, and 500-µM concentrations of IBMcat and its enantiomers. IBMcat (Figure 7) induced a considerable change in CaCo-2 cell morphology already from 300-µM concentration, the cells were smaller, bore roundish shapes, and grew in clusters when compared to control untreated cells. This could be ascribed to the substantial toxicity of IBMcat manifested already after 24 h at this concentration. No difference was observed between the individual enantiomers.
(§2) A total of 1 × 10^5 CaCo-2 and MRC-5 cells were seeded into 35-mm glass-bottom dishes for live-cell imaging ((#1.5, MatTek, USA; Ibidi dishes, Germany). After 16 h, the cells were gently washed with phosphate-buffered saline (PBS; pH 7.4), and then, cultivation media containing 100–500 µM IBMCat was added. Untreated cells and cells treated with the vehicle served as controls. After 24 h of the cell incubation with IBMCat, the cells were gently washed with PBS and then fixed with a 4% solution of formaldehyde (methanol-free, Thermo Fisher, USA) in PBS for 20 min. at 22 °C in the dark. Then, the fixative was discarded, and the cells were washed twice with PBS. […]

For assay [2], the system named is MRC-5 cells. As to the kind of experiment: Fluorescence microscopy of cell morphology, MRC-5. The assay is classed as cell-based, human. The settings on record: MRC-5, 24-h treatment, 100-500 µM.
Text: as §1, §2

For assay [3], the target named is T1, HTR2A (5-hydroxytryptamine receptor 2A) (Homo sapiens, UniProt P28223).
T1 construct: Tango construct (TEV cleavage site and tTA, as described for the dopamine receptor plasmids); host or cells: HTLA (HEK 293-derived)
T1 sequence (P28223 whole entry): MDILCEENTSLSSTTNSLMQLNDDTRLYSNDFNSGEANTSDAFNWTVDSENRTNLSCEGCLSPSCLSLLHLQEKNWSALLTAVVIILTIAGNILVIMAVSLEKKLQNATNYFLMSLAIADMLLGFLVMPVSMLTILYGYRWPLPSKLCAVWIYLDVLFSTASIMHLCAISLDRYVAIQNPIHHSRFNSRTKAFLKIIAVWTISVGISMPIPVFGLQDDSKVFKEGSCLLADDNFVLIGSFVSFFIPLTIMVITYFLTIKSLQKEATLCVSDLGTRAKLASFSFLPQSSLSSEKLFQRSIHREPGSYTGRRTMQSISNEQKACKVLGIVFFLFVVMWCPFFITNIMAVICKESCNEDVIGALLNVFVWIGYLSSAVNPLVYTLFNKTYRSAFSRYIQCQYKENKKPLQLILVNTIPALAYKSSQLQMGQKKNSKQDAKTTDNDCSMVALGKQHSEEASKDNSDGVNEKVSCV
The assay can be described thus: PRESTO-Tango β-arrestin 2 recruitment assay, HTR2A. Type of assay: cell-based. Particulars: 0-500 nM. As to the method: The HTLA cell line was used for the PRESTO-Tango β-arrestin recruitment assay. The HTLA cells were provided as a gift from the laboratory of Bryan Roth (Roth Lab, USA). It is a human cell line derived from human embryonic kidney cells (HEK 293) stably expressing β-arrestin in a fusion with the tobacco etch virus protease (TEV) protease and the luciferase gene under the control of the transcription factor tetracycline transcriptional activator (tTA). The HTLA cells were cultured under standard incubation conditions (37 °C, 5% CO2, 95% humidity) in DMEM with 10% FBS. […]
The transfected HTLA cells were incubated for 24 h, and then 1 × 10^4 cells were seeded per well of a white 96-well clear bottom plate (Brand, Germany) in 40 μL of DMEM with 1% charcoal-stripped FBS (Thermo Fisher Scientific, USA). […] After 5 min., the luminescence was measured using a multi-mode microplate reader SpectraMax iD5 (Molecular Devices, San Jose, CA, USA) measuring the entire wavelength spectrum. All samples were measured in quadruplicates. The data were evaluated by Prism 7 software (GraphPad, San Jose, CA, USA).
Figure S13: β-arrestin 2 recruitment PRESTO-Tango assay: activation of the serotonin receptors. […] The data were processed and evaluated by GraphPad Prism Software using one-way […]

`CNC(C)C(=O)c1ccc(CC(C)C)cc1.Cl` (stereo not shown) [IBMcat, 4-isobutylmethcathinone hydrochloride]: the “concentration from which a considerable change in cell morphology was induced” value in assay [1] is on record as not below 300 µM. In assay [2], the “cell number compared with control” value is reported as “considerably lesser cells than in the control” and the “effect on cell shape” value is reported as “did not induce any shape-related effect”. In assay [3], the “agonistic activity for HTR2A” value was “did not exhibit any agonistic activity”.
